We go through 2 compounds from patent publication US20230174545A1, “HETEROCYCLIC COMPOUNDS AS BET INHIBITORS” (Nuvation Bio Inc., priority 2020, published 2023).

Molecules are shown by their SMILES. pIC50: −log10 of the molar value.

One assay concerns the target T1, BRD4-1 (Homo sapiens, UniProt O60885).
T1 construct: purchased Reaction Biology Corp
The assay is described as follows: Bromodomain and Extraterminal Domain (BET) binding assay (Alpha, Reaction Biology Corp.), BRD4-1. To be noted: protein 20 nM, ligand histone H4 peptide (1-21) K5/8/12/16Ac-biotin 20 nM. Here is the method: (§1) The bromodomain binding assays are performed by Reaction Biology Corp., Malvern, Pa., USA (www.reactionbiology.com). The BET binding assays are conducted in 384 well microplates in assay buffer (50 mM HEPES-HCl, pH 7.5, 100 mM NaCl, 1 mg/ml BSA, 0.05% CHAPS, and 0.5% DMSO) with compounds added as DMSO stocks at a single concentration or with 10-point dose response titrations. BET protein or assay buffer are delivered to the appropriate wells of the microplate. Test compound is then delivered by acoustic technology via a Labcyte Echo550 liquid handler. The microplate is centrifuged for 5 min and pre-incubated for 30 min at RT with gentle shaking. The ligand (histone H4 peptide (1-21) K5/8/12/16Ac-biotin) is delivered and the microplate is again centrifuged for 5 min and allowed to incubate for 30 min at RT with gentle shaking. Donor beads are then added in the absence of light and the microplate is centrifuged and gently shaken. After 5 min, acceptor beads are added in the absence of light and the microplate is centrifuged and gently shaken in the dark for 60 min. The microplate is read using a Perkin Elmer EnSpire Alpha plate reader (λ Ex/λ Em=680/520-620 nm). Percent inhibition is calculated relative to positive and negative controls on a per plate basis. For titration experiments, IC50 values are determined by fitting the percent inhibition versus compound concentration. […]

In another assay the target is T2, BRD4-2 (Homo sapiens, UniProt O60885).
T2 construct: purchased Reaction Biology Corp
The assay is described as follows: Bromodomain and Extraterminal Domain (BET) binding assay (Alpha, Reaction Biology Corp.), BRD4-2. Particulars: protein 130 nM, ligand histone H4 peptide (1-21) K5/8/12/16Ac-biotin 70 nM. Here is the method:
as §1

In the case of `CCNC(=O)c1cc2c(=O)n(C)cc(-c3cc(C(C)(C)O)ccc3Oc3c(C)cc(F)cc3C)c2o1` [Compound 1, N-ethyl-7-(2-(4-fluoro-2,6-dimethylphenoxy)-5-(2-hydroxypropan-2-yl)phenyl)-5-methyl-4-oxo-4,5-dihydrofuro[3,2-c]pyridine-2-carboxamide], the pIC50 (as a rule, the negative decadic logarithm of the IC50, by convention in mol/L) was 5.63 on BRD4-1 and 9.15 on BRD4-2.
The like results for `CCNC(=O)c1cc2c(=O)n(C)cc(-c3cc(NS(=O)(=O)CC)ccc3Oc3ccc(F)cc3F)c2o1` [Compound 65, 7-(2-(2,4-difluorophenoxy)-5-(ethylsulfonamido)phenyl)-N-ethyl-5-methyl-4-oxo-4,5-dihydrofuro[3,2-c]pyridine-2-carboxamide] were, in that order, 8.40 and 8.52.
